Data taken from patent publication US20050004118A1, “Prodrugs of non-steroidal anti-inflammatory and carboxylic acid containing compounds” (priority 2000, published 2005).
Where two headings read alike, the source gives them in different places.

Legend:
[1] = half-life of prodrug ester in plasma (hydrolysis by plasma enzymes); conditions: in plasma at physiologic pH
[2] = stability against chemical hydrolysis in pH solutions; format: physicochemical
[3] = test system: plasma enzymes; test: half-life of prodrug ester in plasma (hydrolysis by plasma enzymes); conditions: plasma
[4] = cited from earlier work

O=C(Cc1ccccc1Nc1c(Cl)cccc1Cl)OCCOC(=O)N1CCOCC1 [2-[(2,6-Dichlorophenyl])amino]benzene-acetic acid morpholinocarbonyloxyethyl ester]
half-life in plasma [1]: 0.35 h | half life in a 1.0 pH solution ([2]; 1.0 pH solution): 8 hours | half life in a 7.4 pH solution ([2]; 7.4 pH solution): 47 hours

Cc1cccc(Nc2ccccc2C(=O)OCCOC(=O)N2CCOCC2)c1C [2-[(2,3-Dimethylphenyl)amino]-benzoic acid morpholinocarbonyloxyethyl ester]
half-life [3]: 0.333 h | half-life ([2]; pH 1.0 solution, pH 1, 1.0 pH solution, read-out: half life in a 1.0 pH solution (converted)): 7.6 h | half-life ([2]; pH 7.4 solution, pH 7.4, 7.4 pH solution, read-out: half life in a 7.4 pH solution (converted)): 66 h

O=C(Oc1ccccc1C(=O)O)c1ccccc1O [Salsalate, salsalate]
solubility at normal acidic gastric pH [4]: insoluble
